Consider 5 molecules from PMC6828666, “Discovery of holoenzyme-disrupting chemicals as substrate-selective CK2 inhibitors” (Scientific Reports, 2019).

In assay [1] the test system is panels of different kinases. More on the design: method as in PMID 28451126. As to conditions: cited from earlier work.
In a further assay the target is T1, CK2α2β2 holoenzyme (Homo sapiens, UniProt P68400).
T1 construct: made in house; host or cells: Escherichia coli (CK2α)
As to the kind of experiment: CK2 kinase assay with CK2β-dependent peptide substrate (eIF2-derived). The class given is biochemical. Conditions: compound at 50 μM; CK2β-dependent peptide substrate. Here is the method: First, all the compounds were dissolved at 200 μM in 50 mM Tris-HCl pH 7.5 buffer containing 0.1 M NaCl and 5% DMSO; the compounds that precipitated under these conditions were discarded. The 32 remaining compounds were diluted at 200 μM in the kinase buffer and centrifuged at 14,000 g. The supernatant was then assayed for ability to inhibit phosphorylation of a CK2β-dependent peptide substrate. For this, a 22-residue long N-terminal fragment of the eukaryotic translation initiation factor 2 (eIF2), known to be exclusively phosphorylated by the CK2α2β2 holoenzyme[4] was used as a substrate. […]
Final concentration of ATP was 100 μM. Assays were performed under linear kinetic conditions for 5 min at room temperature before termination by the addition of 60 μL of 4% TCA. ^32P incorporation in peptide substrate was determined as previously described. […]

The next assay has as its target CK2α (Homo sapiens, UniProt P68400). As to the kind of experiment: SPR binding studies on captured GST-CK2α. As to conditions: surface plasmon resonance. Here is the method:
SPR competition studies (Fig. 2i) were performed using a BIAcore 3000 instrument (BIAcore AB) equipped with a CM5 sensor chip (BIAcore AB). After activation with a solution of N-hydroxysuccinimide and N-ethyl-N-(dimethylaminopropyl)carbodiimide hydrochloride (coupling solution BIAcore AB), the anti-GST antibody diluted at 30 μg/ml in 10 mM acetate buffer pH 5.0 was injected at a flow rate of 5 μL/min for 7 min. All the surfaces were blocked with a 3 min injection at 10 μL/min of 1 M ethanolamine, pH 8.0. GST-CK2α (50 μg/ml) was immobilized on the surface at a flow rate of 5 μL/min in HBS (10 mM Hepes pH 7.3, 0.15 M NaCl, 3 mM EDTA, 0.005% polysorbate 20). MBP-CK2β diluted at 50 μg/ml in HBS buffer was injected over the surface at a flow rate of 5 μL/min in presence of various compound 1 concentration. Regeneration of the surfaces was achieved by injection of 10 mM glycine-HCl pH 2.2. SPR binding studies (Supplementary Fig. S7) were performed using a Reichert SR7000DC instrument optical biosensor (Reichert Technologies) equipped with a CMD500m sensor chip obtained from XanTec Bioanalytics. CK2α was immobilized by a capturing approach using a monoclonal anti-GST antibody (27 kDa, Clone GST-R 6G9 produced in rat, SAB4200055 Sigma Aldrich). Prior to use, the anti-GST antibodies were purified twice by micro dialysis at 4 °C (Membrane: dialysis tubing benzoylated, 9 mm, D2272-5FT) in 10 mM sodium acetate, pH = 5. Anti-GST antibodies were immobilized using amine-coupling chemistry at 12 °C. The surfaces of all two flow cells were activated for 7 min with a 1:1 mixture of 0.1 M NHS (N-hydroxysuccinimide) and 0.1 M EDC (3-(N,N-dimethylamino) propyl-N-ethylcarbodiimide) at a flow rate of 10 μL/min. The antibody at a concentration of 30 μg/mL in 10 mM sodium acetate, pH 5.0, was immobilized at a density of 2000 RU on flow cell 2; flow cell 1 was left blank to serve as a reference surface. All the surfaces were blocked with a 3 min injection at 10 μL/min of 1 M ethanolamine, pH 8.0. GST tagged CK2α at a concentration of 50 μg/mL in 10 mM HEPES, 150 mM NaCl, 3 mM EDTA, 0.005% (v/v) polysorbate 20, pH = 7.4 was captured at a density of 900 RU on flow cell 2. In order to collect kinetic binding data, analytes in 10 mM HEPES, 150 mM NaCl, 3 mM EDTA, 0.005% (v/v) polysorbate 20, 1% DMSO (v/v), 100 μM ATP, pH = 7.4 were injected over the two flow cells at concentrations of 50, 25, 12.5, 6.25, 3.12, 1.56 μM at a flow rate of 25 μL/min and at a temperature of 25 °C. The complex was allowed to associate and dissociate for 120 s. Duplicate injections (in random order) of each sample and a buffer blank were flowed over the two surfaces. Affinities were obtained after treatments (DMSO calibration, blank and references subtractions) using the software Scrubber 2.0c.
Fig. S7. Binding kinetics of compounds 2-6 by surface plasmon resonance. For each compound, sensorgrams (black line) and global fits (orange line) are depicted with the corresponding chemical structure and the fitted kinetics parameters. Experiments show representative data of two identical repeats.

The subject of a further assay is MCF10A cells. As to the kind of experiment: Cell growth inhibition (IncuCyte). Conditions: 24 h. The format is cell-based, human. Here is the method:
Cells grown on 96-well flat-bottomed plates (Corning Falcon) were tracked using an Essen IncuCyte Zoom live-cell microscopy instrument, an automated live cell imager with high-throughput capabilities and built-in data analysis. Experiments were conducted at 37 °C and 5% CO2. The software incorporated into the IncuCyte Zoom was used to analyze the images.
MCF10A and MDA-MB231 cells were seeded into 96-well plates at a density (1 × 10^4 and 2 × 10^4 cells/well, respectively) and allowed to attach overnight. Bright field images were captured every 3 h for the duration of the experiment. The detection software was calibrated specifically for MCF10A and MDA-MB231 to ensure accurate distinction of cells from empty space. Cell proliferation data were obtained by the cell confluence increment in each of the treatments and expressed as percentage relative to that of control cells.
Fig. S9. […] (a) MCF10A cells were incubated with increasing concentrations of 6 for 24 h. (b) Inset: western blot analysis of CK2 subunits in parental MCF10A cells (WT) or CK2β knockdown MCF10A cells (∆CK2β). Uncropped blots are shown in Supplementary Fig. S16. MCF10A WT (r,p) or MCF10A ∆CK2β (○,●) were incubated with DMSO (r,○) or 50 μM 6 (p,●) for the indicated time. Cell growth was monitored using an Essen IncuCyte Zoom live-cell microscopy incubator. Images were captured every 15 min for the duration of the experiment. […]

The target in assay [2] is [35S]methionine-labeled CK2α (human) (UniProt P68400). As to the kind of experiment: radioligand binding; biotinylated MBP-CK2β (250 ng/well) on streptavidin-coated 96-well plates; soluble [35S]methionine-labeled CK2α (10^5 cpm) with or without competitor; 50 mM Tris/HCl pH 7.2, 0.4 M NaCl; 1 h at room temperature, washed three times, scintillation counting.

The inhibition is the percentage by which the read-out fell short of the control. Low values mean a response near the control, high ones a response far below the control. In general, Kd refers to the free concentration of one partner at which half of the binding sites on the other are occupied at equilibrium, for simple one-to-one binding. Higher therefore signals lower affinity. The GI50 is the concentration that inhibits growth by half.

Where a name gives a salt, the structure may show the parent alone.

Chain of CK2α (P68400 whole entry): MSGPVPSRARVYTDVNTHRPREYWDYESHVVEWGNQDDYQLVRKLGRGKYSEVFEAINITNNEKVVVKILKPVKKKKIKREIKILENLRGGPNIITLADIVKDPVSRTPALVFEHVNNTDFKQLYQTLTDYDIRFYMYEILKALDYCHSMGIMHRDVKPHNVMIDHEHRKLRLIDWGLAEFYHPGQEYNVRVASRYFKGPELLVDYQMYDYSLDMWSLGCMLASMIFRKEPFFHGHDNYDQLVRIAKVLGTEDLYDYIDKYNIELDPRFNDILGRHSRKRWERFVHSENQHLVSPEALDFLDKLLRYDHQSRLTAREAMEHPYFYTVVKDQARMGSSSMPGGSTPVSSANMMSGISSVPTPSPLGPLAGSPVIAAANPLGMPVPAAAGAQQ
T1 sequence (P68400 whole entry): as above
Chain of [35S]methionine-labeled CK2α (human) (P68400 whole entry): as above

`O=C(O)c1ccc2c(c1)nc(Nc1cccc(Cl)c1)c1ccncc12` [CX-4945]: in assay [1], the Gini coefficient was 0.62.
Regarding `CS(=O)(=O)NCCN1CCC(COC(=O)c2c[nH]c3ccc(F)cc23)CC1` [Compound 2, (1-(2-(Methylsulfonamido)ethyl)piperidin-4-yl)methyl 5-fluoro-1H-indole-3-carboxylate hydrochloride], the inhibition at 50 µM on CK2α2β2 holoenzyme is 25%. This molecule also registered a Kd on CK2α of 44 ± 6 µM.
On the same counts, the results for `O=C(OCC1CCN(CCNS(=O)(=O)c2ccccc2)CC1)c1c[nH]c2ccc(F)cc12` [Compound 5, (1-(2-(Phenylsulfonamido)ethyl)piperidin-4-yl)methyl 5-fluoro-1H-indole-3-carboxylate hydrochloride] are 66% and 43 ± 2 µM.
In the assay with MCF10A cells, `COc1[nH]c2ccc(F)cc2c1C(=O)OCC1CCN(CCNS(=O)(=O)c2ccccc2)CC1.Cl` [Compound 6, 1-(2-(Phenylsulfonamido)ethyl)piperidin-4-yl)methyl 5-fluoro-2-methoxy-1H-indole-3-carboxylate hydrochloride] returned a concentration for 50% growth inhibition (GI50) of 22 ± 3 µM. Moreover, the Kd at CK2α is 30 ± 2 µM.
Turning to CK2β-derived cyclic peptide, Pc, in assay [2], the percent inhibition of CK2α/CK2β complex formation at 60 μM stood at 90%.
